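Growth conditions: 96-well plates. Treatment: test compound, 48 hours, 5 concentrations. Analysis: linear interpolation between bracketing concentrations; unreached endpoints set to highest concentration. Abbreviation: GI50, concentration required for 50% inhibition of growth. The concentration for full growth arrest is given as TGI.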
Key:
Test in all cases: NCI tumour cell line growth inhibition, 48 h
NCI-H23 lung = system: NCI-H23 lung
HCT-15 colon = system: HCT-15 colon
EKVX NSCLC = system: EKVX NSCLC
U251 CNS = system: U251 CNS
A549 NSCLC = system: A549 NSCLC
RPMI-8226 leukemia = system: RPMI-8226 leukemia
UACC-62 melanoma = system: UACC-62 melanoma
MALME-3M melanoma = system: MALME-3M melanoma
OVCAR-8 ovarian = system: OVCAR-8 ovarian
NCI-H226 lung = system: NCI-H226 lung

Structure (SMILES): CS(=O)(=O)c1ccc2c(c1)C(=O)c1c-2n(CCCBr)c(=O)c2cc([N+](=O)[O-])ccc12
- GI50 (NCI-H23 lung): 7.87 µM
- TGI (NCI-H23 lung): > 100 µM
- GI50 (HCT-15 colon): 48.9 µM
- TGI (HCT-15 colon): > 100 µM
- GI50 (EKVX NSCLC): > 100 µM
- TGI (EKVX NSCLC): > 100 µM
- GI50 (U251 CNS): 8.76 µM
- TGI (U251 CNS): > 100 µM
- GI50 (A549 NSCLC): 7.34 µM
- TGI (A549 NSCLC): > 100 µM
- GI50 (RPMI-8226 leukemia): 1.68 µM
- TGI (RPMI-8226 leukemia): 42.8 µM
- GI50 (UACC-62 melanoma): 4.26 µM
- TGI (UACC-62 melanoma): > 100 µM
- GI50 (MALME-3M melanoma): 69.6 µM
- TGI (MALME-3M melanoma): > 100 µM
- GI50 (OVCAR-8 ovarian): 29.3 µM
- TGI (OVCAR-8 ovarian): > 100 µM
- GI50 (NCI-H226 lung): 26.5 µM
- TGI (NCI-H226 lung): > 100 µM

Structure (SMILES): Cc1cc(Cl)ccc1NC(=O)CC1SC(=NC(=O)c2ccccc2Cl)NC1=O (stereo not given)
- TGI (NCI-H23 lung): > 100 µM
- TGI (HCT-15 colon): 33.1 µM
- TGI (EKVX NSCLC): > 100 µM
- TGI (U251 CNS): 30.1 µM
- TGI (A549 NSCLC): > 100 µM
- TGI (RPMI-8226 leukemia): 38.4 µM
- TGI (UACC-62 melanoma): 71.2 µM
- TGI (MALME-3M melanoma): 37.1 µM
- TGI (OVCAR-8 ovarian): > 100 µM
- TGI (NCI-H226 lung): 75 µM

Structure (SMILES): COC(=O)CC1C2(C)C3=C(C)C(c4ccoc4)CC3OC2C2OC(=O)C3(C)C=CC(=O)C1(C)C23 (stereo not given)
- TGI (NCI-H23 lung): 3.52 µM
- TGI (HCT-15 colon): 3.15 µM
- TGI (EKVX NSCLC): 3.89 µM
- TGI (U251 CNS): 2.95 µM
- TGI (A549 NSCLC): 11.4 µM
- TGI (RPMI-8226 leukemia): 1.16 µM
- TGI (UACC-62 melanoma): 3.79 µM
- TGI (MALME-3M melanoma): 2.48 µM
- TGI (OVCAR-8 ovarian): 5.44 µM
- TGI (NCI-H226 lung): 7.68 µM

Structure (SMILES): N#CC(C#N)=Cc1ccc(C(O)P(=O)(O)O)cc1 (stereo not given)
- TGI (NCI-H23 lung): > 100 µM
- TGI (HCT-15 colon): > 100 µM
- TGI (EKVX NSCLC): > 100 µM
- TGI (U251 CNS): > 100 µM
- TGI (A549 NSCLC): > 100 µM
- TGI (RPMI-8226 leukemia): > 100 µM
- TGI (UACC-62 melanoma): > 100 µM
- TGI (MALME-3M melanoma): > 100 µM
- TGI (OVCAR-8 ovarian): > 100 µM
- TGI (NCI-H226 lung): > 100 µM

Structure (SMILES): CCNC(=O)Oc1ccc(/C(=C(\C)c2ccc(Cl)cc2)c2ccc(OCCN(CC)CC)cc2)cc1
- GI50 (NCI-H23 lung): 7.92 µM
- TGI (NCI-H23 lung): 22.1 µM
- GI50 (HCT-15 colon): 2.21 µM
- TGI (HCT-15 colon): 7.04 µM
- GI50 (EKVX NSCLC): 10.3 µM
- TGI (EKVX NSCLC): 23.6 µM
- GI50 (U251 CNS): 4.26 µM
- TGI (U251 CNS): 13.5 µM
- GI50 (A549 NSCLC): 5.63 µM
- TGI (A549 NSCLC): 18.4 µM
- GI50 (RPMI-8226 leukemia): 2.4 µM
- TGI (RPMI-8226 leukemia): 6 µM
- GI50 (UACC-62 melanoma): 2.07 µM
- TGI (UACC-62 melanoma): 4 µM
- GI50 (MALME-3M melanoma): 1.7 µM
- TGI (MALME-3M melanoma): 3.61 µM
- GI50 (OVCAR-8 ovarian): 9.25 µM
- TGI (OVCAR-8 ovarian): 29.1 µM
- GI50 (NCI-H226 lung): 17.2 µM
- TGI (NCI-H226 lung): 39.5 µM

Structure (SMILES): CCCCOC(=O)/C=C\C(=O)NC(N)=O
- GI50 (NCI-H23 lung): 25.1 µM
- TGI (NCI-H23 lung): 72.5 µM
- GI50 (HCT-15 colon): 15.6 µM
- TGI (HCT-15 colon): 38.3 µM
- GI50 (EKVX NSCLC): 23.1 µM
- TGI (EKVX NSCLC): 56.9 µM
- GI50 (U251 CNS): 26.2 µM
- TGI (U251 CNS): 89.3 µM
- GI50 (A549 NSCLC): 34.3 µM
- TGI (A549 NSCLC): > 100 µM
- GI50 (RPMI-8226 leukemia): 7.88 µM
- TGI (RPMI-8226 leukemia): 28.9 µM
- GI50 (UACC-62 melanoma): 15.3 µM
- TGI (UACC-62 melanoma): 30.1 µM
- GI50 (MALME-3M melanoma): 14.7 µM
- TGI (MALME-3M melanoma): 34.5 µM
- GI50 (OVCAR-8 ovarian): 29.7 µM
- TGI (OVCAR-8 ovarian): > 100 µM
- GI50 (NCI-H226 lung): 20 µM
- TGI (NCI-H226 lung): 49.2 µM

Structure (SMILES): NC(CP(=O)(O)O)C(=O)O (stereo not given)
- TGI (NCI-H23 lung): > 100 µM
- TGI (HCT-15 colon): > 100 µM
- TGI (EKVX NSCLC): > 100 µM
- TGI (U251 CNS): > 100 µM
- TGI (A549 NSCLC): > 100 µM
- TGI (RPMI-8226 leukemia): > 100 µM
- TGI (UACC-62 melanoma): > 100 µM
- TGI (MALME-3M melanoma): > 100 µM
- TGI (OVCAR-8 ovarian): > 100 µM
- TGI (NCI-H226 lung): > 100 µM

Structure (SMILES): Cc1cncc(-c2nc(NCCc3c[nH]c4ccccc34)c3ncn(C(C)C)c3n2)c1
- GI50 (NCI-H23 lung): 5.34 µM
- TGI (NCI-H23 lung): 19.4 µM
- GI50 (HCT-15 colon): 1.67 µM
- TGI (HCT-15 colon): 3.82 µM
- GI50 (EKVX NSCLC): 6.77 µM
- TGI (EKVX NSCLC): 35.5 µM
- GI50 (U251 CNS): 4.96 µM
- TGI (U251 CNS): 39.6 µM
- GI50 (A549 NSCLC): 4.28 µM
- TGI (A549 NSCLC): > 100 µM
- GI50 (RPMI-8226 leukemia): 2.28 µM
- TGI (RPMI-8226 leukemia): 5.23 µM
- GI50 (UACC-62 melanoma): 3.3 µM
- TGI (UACC-62 melanoma): 12.1 µM
- GI50 (MALME-3M melanoma): 2.08 µM
- TGI (MALME-3M melanoma): 5.71 µM
- GI50 (OVCAR-8 ovarian): 4.6 µM
- TGI (OVCAR-8 ovarian): > 100 µM
- GI50 (NCI-H226 lung): 4.69 µM
- TGI (NCI-H226 lung): 20.5 µM

Source: PubChem BioAssay (NCI)
